According to ChEMBL document CHEMBL1201862, “PubChem BioAssay data set” (2004):
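Dose response: 5 concentrations. Exposure: 48 h. Format: 96-well plates. Endpoint: linear interpolation; highest concentration if not reached. GI50 marks 50% less growth.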 Calls of active or inactive are those of the source. Rule as the data show it: active = GI50 up to about 1.1 µM and inactive = higher.

Legend:
Assay in all cases: NCI anticancer screen, dose series, 48 h
[1] = test system: SF-539
[2] = test system: NCI-H460
[3] = test system: HOP-92
[4] = test system: SN12C
[5] = test system: A498
[6] = test system: K562
[7] = test system: HCC 2998
[8] = test system: HCT-15
[9] = test system: CAKI-1
[10] = test system: OVCAR-5
[11] = test system: MCF7
[12] = test system: 786-0
[13] = test system: NCI-H23
[14] = test system: HT-29
[15] = test system: MDA-MB-435
[16] = test system: A549
[17] = test system: OVCAR-8
[18] = test system: HOP-62
[19] = test system: SF-295
[20] = test system: ACHN
[21] = test system: M14
[22] = test system: MOLT-4
[23] = test system: DU-145
[24] = test system: NCI-H522
[25] = test system: OVCAR-3
[26] = test system: MDA-MB-231
[27] = test system: SNB-75
[28] = test system: U-251
[29] = test system: TK-10
[30] = test system: COLO 205
[31] = test system: OVCAR-4
[32] = test system: SK-MEL-2
[33] = test system: RXF 393
[34] = test system: UACC-257
[35] = test system: IGROV-1
[36] = test system: Hs-578T
[37] = test system: UO-31
[38] = test system: SK-OV-3
[39] = test system: HCT-116
[40] = test system: BT-549
[41] = test system: SW-620
[42] = test system: SK-MEL-5
[43] = test system: PC-3
[44] = test system: KM12
[45] = test system: UACC-62
[46] = test system: NCI/ADR-RES
[47] = test system: LOX IMVI
[48] = test system: SNB-19
[49] = test system: EKVX
[50] = test system: CCRF-CEM
[51] = test system: T47D
[52] = test system: SK-MEL-28
[53] = test system: SF-268
[54] = test system: MDA-N
[55] = test system: Malme-3M
[56] = test system: NCI-H226
[57] = test system: RPMI-8226
[58] = test system: HL-60
[59] = test system: SR

CCc1c(O)cc(=O)oc1-c1ccc(OC)c(OC)c1
GI50 [1]: > 100 µM (inactive) | GI50 [2]: > 100 µM (inactive) | GI50 [3]: > 100 µM (inactive) | GI50 [4]: > 100 µM (inactive) | GI50 [5]: > 100 µM (inactive) | GI50 [6]: > 100 µM (inactive) | GI50 [7]: > 100 µM (inactive) | GI50 [8]: > 100 µM | GI50 [9]: > 100 µM (inactive) | GI50 [10]: > 100 µM (inactive) | GI50 [11]: > 100 µM (inactive) | GI50 [12]: > 100 µM (inactive) | GI50 [13]: > 100 µM (inactive) | GI50 [14]: > 100 µM (inactive) | GI50 [15]: > 100 µM (inactive) | GI50 [16]: > 100 µM (inactive) | GI50 [17]: > 100 µM (inactive) | GI50 [18]: > 100 µM (inactive) | GI50 [19]: > 100 µM (inactive) | GI50 [20]: > 100 µM (inactive) | GI50 [21]: > 100 µM (inactive) | GI50 [22]: > 100 µM (inactive) | GI50 [23]: > 100 µM (inactive) | GI50 [24]: 64.1 µM (inactive) | GI50 [25]: > 100 µM (inactive) | GI50 [26]: > 100 µM (inactive) | GI50 [27]: 72.6 µM (inactive) | GI50 [28]: > 100 µM (inactive) | GI50 [29]: > 100 µM (inactive) | GI50 [30]: > 100 µM (inactive) | GI50 [31]: > 100 µM (inactive) | GI50 [32]: > 100 µM (inactive) | GI50 [33]: > 100 µM (inactive) | GI50 [34]: > 100 µM (inactive) | GI50 [35]: > 100 µM (inactive) | GI50 [36]: > 100 µM (inactive) | GI50 [37]: > 100 µM (inactive) | GI50 [38]: > 100 µM (inactive) | GI50 [39]: > 100 µM (inactive) | GI50 [40]: > 100 µM (inactive) | GI50 [41]: > 100 µM (inactive) | GI50 [42]: > 100 µM (inactive) | GI50 [43]: > 100 µM (inactive) | GI50 [44]: > 100 µM (inactive) | GI50 [45]: > 100 µM (inactive) | GI50 [46]: > 100 µM (inactive) | GI50 [47]: > 100 µM (inactive) | GI50 [48]: > 100 µM (inactive) | GI50 [49]: > 100 µM (inactive) | GI50 [50]: > 100 µM (inactive) | GI50 [51]: > 100 µM (inactive) | GI50 [52]: > 100 µM (inactive) | GI50 [53]: > 100 µM (inactive)

NC(CCCCNC(=O)C(Cc1ccccc1)NC(=O)OCc1ccccc1)C(=O)NC(CCCCNC(=O)C(Cc1ccccc1)NC(=O)OCc1ccccc1)C(=O)NC(CCCCNC(=O)C(Cc1ccccc1)NC(=O)OCc1ccccc1)C(=O)NC(CCCCNC(=O)C(Cc1ccccc1)NC(=O)OCc1ccccc1)C(=O)NC(CCCCNC(=O)C(Cc1ccccc1)NC(=O)OCc1ccccc1)C(=O)NC(CCCCNC(=O)C(Cc1ccccc1)NC(=O)OCc1ccccc1)C(=O)O (configuration not stated)
GI50 [2]: > 100 µM (inactive) | GI50 [4]: > 100 µM (inactive) | GI50 [54]: > 100 µM (inactive) | GI50 [6]: > 100 µM (inactive) | GI50 [7]: > 100 µM (inactive) | GI50 [8]: > 100 µM | GI50 [9]: > 100 µM (inactive) | GI50 [55]: > 100 µM (inactive) | GI50 [10]: > 100 µM (inactive) | GI50 [11]: > 100 µM (inactive) | GI50 [12]: > 100 µM (inactive) | GI50 [13]: > 100 µM (inactive) | GI50 [14]: > 100 µM (inactive) | GI50 [15]: > 100 µM (inactive) | GI50 [16]: > 100 µM (inactive) | GI50 [17]: > 100 µM (inactive) | GI50 [18]: > 100 µM (inactive) | GI50 [56]: > 100 µM (inactive) | GI50 [20]: > 100 µM (inactive) | GI50 [21]: > 100 µM (inactive) | GI50 [57]: > 100 µM (inactive) | GI50 [58]: > 100 µM (inactive) | GI50 [22]: > 100 µM (inactive) | GI50 [23]: > 100 µM (inactive) | GI50 [24]: > 100 µM (inactive) | GI50 [25]: > 100 µM (inactive) | GI50 [26]: > 100 µM (inactive) | GI50 [27]: > 100 µM (inactive) | GI50 [28]: > 100 µM (inactive) | GI50 [29]: > 100 µM (inactive) | GI50 [31]: > 100 µM (inactive) | GI50 [59]: > 100 µM (inactive) | GI50 [32]: > 100 µM (inactive) | GI50 [34]: > 100 µM (inactive) | GI50 [35]: > 100 µM (inactive) | GI50 [37]: > 100 µM (inactive) | GI50 [39]: > 100 µM (inactive) | GI50 [40]: > 100 µM (inactive) | GI50 [41]: > 100 µM (inactive) | GI50 [42]: > 100 µM (inactive) | GI50 [43]: > 100 µM (inactive) | GI50 [45]: > 100 µM (inactive) | GI50 [47]: > 100 µM (inactive) | GI50 [48]: > 100 µM (inactive) | GI50 [50]: > 100 µM (inactive) | GI50 [51]: > 100 µM (inactive) | GI50 [52]: > 100 µM (inactive) | GI50 [53]: > 100 µM (inactive)

NNC(=O)c1c(SCc2ccccc2)nc2c3ccccc3ccn12
GI50 [1]: 15.9 µM (inactive) | GI50 [2]: 14.8 µM (inactive) | GI50 [3]: 17 µM (inactive) | GI50 [4]: 17 µM (inactive) | GI50 [5]: 11.6 µM (inactive) | GI50 [6]: 14.7 µM (inactive) | GI50 [7]: 46.8 µM (inactive) | GI50 [8]: 5.66 µM | GI50 [9]: 15 µM (inactive) | GI50 [10]: 20.5 µM (inactive) | GI50 [11]: 24.2 µM (inactive) | GI50 [13]: 21.2 µM (inactive) | GI50 [14]: 16.5 µM (inactive) | GI50 [15]: 17.1 µM (inactive) | GI50 [16]: 23.4 µM (inactive) | GI50 [17]: 30.5 µM (inactive) | GI50 [18]: 10.2 µM (inactive) | GI50 [56]: 22.1 µM (inactive) | GI50 [19]: 21.9 µM (inactive) | GI50 [20]: 27.2 µM (inactive) | GI50 [21]: 14.5 µM (inactive) | GI50 [58]: 9.08 µM (inactive) | GI50 [22]: 10.9 µM (inactive) | GI50 [23]: 23.9 µM (inactive) | GI50 [24]: 15.5 µM (inactive) | GI50 [25]: 2.92 µM (inactive) | GI50 [26]: 29.4 µM (inactive) | GI50 [28]: 17.7 µM (inactive) | GI50 [29]: 30.9 µM (inactive) | GI50 [30]: 23.9 µM (inactive) | GI50 [31]: 14.5 µM (inactive) | GI50 [32]: 28.3 µM (inactive) | GI50 [33]: 15.2 µM (inactive) | GI50 [34]: 37.2 µM (inactive) | GI50 [35]: 14.4 µM (inactive) | GI50 [36]: 80.4 µM (inactive) | GI50 [37]: 10 µM (inactive) | GI50 [38]: 27.1 µM (inactive) | GI50 [40]: 21.4 µM (inactive) | GI50 [41]: 20.9 µM (inactive) | GI50 [42]: 6.32 µM (inactive) | GI50 [43]: 17.1 µM (inactive) | GI50 [44]: 22.6 µM (inactive) | GI50 [45]: 10.2 µM (inactive) | GI50 [46]: 26.5 µM (inactive) | GI50 [48]: 36.6 µM (inactive) | GI50 [49]: 19.5 µM (inactive) | GI50 [50]: 2.92 µM (inactive) | GI50 [51]: 18.1 µM (inactive) | GI50 [52]: 18.1 µM (inactive) | GI50 [53]: 20.3 µM (inactive)
